Test results published in patent US7235379B2, “Method and medium for the detection/identification of microorgranisms with esterase activity” (Bio Merieux, priority 2000, dated 2007).
Several values for one entry are separate records, joined by “and”; a condition that tells them apart may be missing. Equal entries are not always repeated. Structures can show the parent of a compound that is named as a salt. Where two headings read alike, the source gives them in different places.

What was measured:
[1] = test system: Salmonella paratyphi A 006
Protocol: (§1) The esterase substrate tested is 5-bromo-3-indolyl nonanoate. A 40 g/l stock solution of substrate is prepared in a mixture of 40% dimethyl sulfoxide and 60% Tween 20. A sufficient volume is added to a supercooled MacConkey medium (without neutral red) to give a substrate concentration of 500 mg/l.
(§2) Microorganisms originating from the Applicant's collection were inoculated onto this medium from a 0.5 McFarland suspension by isolation in three quadrants. The dishes were incubated at 37° C. for 48 hours. The colonies formed were examined visually after 24 and 48 hours of incubation. The coloration of these colonies and the intensity of this coloration were noted.
(§3) Note: In the above Examples, the numbers following the strains correspond to the number of each strain referenced in the Applicant's collection. The intensity of coloration corresponds to an arbitrary scale defined as follows: […]

Salmonella typhi 118 [2] = test system: Salmonella typhi 118
Protocol: as §1, §2, §3

[3] = test system: Pseudomonas aeruginosa 165; assay: Ex.1 colony coloration, 5-bromo-3-indolyl nonanoate, DMSO/Tween 20, MacConkey; format: cell-based
Salmonella arizonae 018 [4] = assay: Ex.2 colony coloration, 5-bromo-3-indolyl nonanoate, methanol/bile salts, MacConkey; format: cell-based; on intensity of coloration: key: 0: no activity; 0.1: trace of coloration; 0.5: very pale coloration; 1: distinct coloration of low intensity; 2: clear coloration of medium intensity; 3: intense coloration; 4: very intense coloration
Protocol: (§4) The esterase substrate tested is 5-bromo-3-indolyl nonanoate. A 25 g/l stock solution of substrate is prepared in methanol to which 5 g/l of bile salts have been added. A sufficient volume is added to a supercooled MacConkey medium (without neutral red) to give a substrate concentration of 500 mg/l.

Serratia marcescens 038 = assay: as above; format: cell-based; on intensity of coloration: key: 0: no activity; 0.1: trace of coloration; 0.5: very pale coloration; 1: distinct coloration of low intensity; 2: clear coloration of medium intensity; 3: intense coloration; 4: very intense coloration
Protocol: as §4

[5] = test system: Pseudomonas aeruginosa 165; assay: as above; format: cell-based
Protocol: as §4

[6] = test system: Acinetobacter calcoaceticus 034; assay: as above; format: cell-based; on intensity of coloration: key: 0: no activity; 0.1: trace of coloration; 0.5: very pale coloration; 1: distinct coloration of low intensity; 2: clear coloration of medium intensity; 3: intense coloration; 4: very intense coloration
Protocol: as §4

[7] = test system: Listeria monocytogenes 023; assay: Ex.3 colony coloration, 5-bromo-4-chloro-3-indolyl nonanoate 250 mg/l, DMSO/Tween 20; format: cell-based; further: key: 0: no activity; 0.1: trace of coloration; 0.5: very pale coloration; 1: distinct coloration of low intensity; 2: clear coloration of medium intensity; 3: intense coloration; 4: very intense coloration
Protocol: The esterase substrate tested is 5-bromo-4-chloro-3-indolyl nonanoate. A 40 g/l stock solution of substrate is prepared in a mixture of 40% dimethyl sulfoxide and 60% Tween 20. A sufficient volume is added to a supercooled MacConkey medium (without neutral red) to give a substrate concentration of 250 mg/l.

Salmonella typhi 118 [8] = format: cell-based
Salmonella arizonae 018 [9] = assay: Ex.4 colony coloration, 5-bromo-3-indolyl nonanoate, DMSO/Tween 20, MacConkey; format: cell-based; details: 8 ml/l Tergitol 4
[10] = test system: Gram-positive bacteria or yeasts
Protocol: as §1, with “5-bromo-4-chloro-3-indolyl” for “5-bromo-3-indolyl”, “250” for “500”
as §2

CCCCC(CC)CCC(CC(C)C)OS(=O)(=O)O (centres unmarked) [Tergitol 4, 7-ethyl-2-methyl-4-undecanoate hydrogensulfate or its sodium salt] was tested, and the color ([1]; 2 ml/l, 24 h) was “gray”, the intensity of coloration ([1]; 2 ml/l, 24 h) was 2 and the color ([1]; 2 ml/l, 48 h) was “gray”. For the same compound, the intensity of coloration ([1]; 2 ml/l, 48 h) was 2, the color ([1]; 4 ml/l, 24 h) was “gray” and the intensity of coloration ([1]; 4 ml/l, 24 h) was 2. The color ([1]; 4 ml/l, 48 h) was “gray”, the intensity of coloration ([1]; 4 ml/l, 48 h) was 2.5 and the color ([1]; 8 ml/l, 24 h) was “gray”. The intensity of coloration ([1]; 8 ml/l, 24 h) was 3, the color ([1]; 8 ml/l, 48 h) was “gray” and the intensity of coloration ([1]; 8 ml/l, 48 h) was 3. For the same compound, the color ([1]; 16 ml/l, 24 h) was “gray”, the intensity of coloration ([1]; 16 ml/l, 24 h) was 2 and the color ([1]; 16 ml/l, 48 h) was “gray”. The intensity of coloration ([1]; 16 ml/l, 48 h) was 2, the color (Salmonella typhi 118 [2]) was “gray” and the intensity of coloration (Salmonella typhi 118 [2]; sodium salt) was 3 and 2 and 3.5. For the same compound, the color ([3]; 2 ml/l, 24 h) was “gray”, the intensity of coloration ([3]; 2 ml/l, 24 h) was 3.5 and the color ([3]; 2 ml/l, 48 h) was “gray”. For the same compound, the intensity of coloration ([3]; 2 ml/l, 48 h) was 3.5, the color ([3]; 4 ml/l, 24 h) was “gray” and the intensity of coloration ([3]; 4 ml/l, 24 h) was 4. For the same compound, the color ([3]; 4 ml/l, 48 h) was “gray”, the intensity of coloration ([3]; 4 ml/l, 48 h) was 4 and the color ([3]; 8 ml/l, 24 h) was “gray”. The intensity of coloration ([3]; 8 ml/l, 24 h) was 4, the color ([3]; 8 ml/l, 48 h) was “gray” and the intensity of coloration ([3]; 8 ml/l, 48 h) was 4. The color ([3]; 16 ml/l, 24 h) was “gray”, the intensity of coloration ([3]; 16 ml/l, 24 h) was 4 and the color ([3]; 16 ml/l, 48 h) was “gray”. The intensity of coloration ([3]; 16 ml/l, 48 h) was 4, the color (Salmonella arizonae 018 [4]; 2 ml/l, 24 h) was “gray” and the intensity of coloration (Salmonella arizonae 018 [4]; 2 ml/l, 24 h) was 2.5. The color (Salmonella arizonae 018 [4]; 2 ml/l, 48 h) was “gray”, the intensity of coloration (Salmonella arizonae 018 [4]; 2 ml/l, 48 h) was 3 and the color (Salmonella arizonae 018 [4]; 4 ml/l, 24 h) was “gray”. For the same compound, the intensity of coloration (Salmonella arizonae 018 [4]; 4 ml/l, 24 h) was 2, the color (Salmonella arizonae 018 [4]; 4 ml/l, 48 h) was “gray” and the intensity of coloration (Salmonella arizonae 018 [4]; 4 ml/l, 48 h) was 2.5. For the same compound, the color (Salmonella arizonae 018 [4]; 8 ml/l, 24 h) was “gray”, the intensity of coloration (Salmonella arizonae 018 [4]; 8 ml/l, 24 h) was 0.5 and the color (Salmonella arizonae 018 [4]; 8 ml/l, 48 h) was “gray”. The intensity of coloration (Salmonella arizonae 018 [4]; 8 ml/l, 48 h) was 1.5, the color (Salmonella arizonae 018 [4]; 16 ml/l, 24 h) was “gray” and the intensity of coloration (Salmonella arizonae 018 [4]; 16 ml/l, 24 h) was 0.5. For the same compound, the color (Salmonella arizonae 018 [4]; 16 ml/l, 48 h) was “gray”, the intensity of coloration (Salmonella arizonae 018 [4]; 16 ml/l, 48 h) was 2 and the color (Serratia marcescens 038; 2 ml/l, 24 h) was “gray”. For the same compound, the intensity of coloration (Serratia marcescens 038; 2 ml/l, 24 h) was 2, the color (Serratia marcescens 038; 2 ml/l, 48 h) was “gray” and the intensity of coloration (Serratia marcescens 038; 2 ml/l, 48 h) was 3. The color (Serratia marcescens 038; 4 ml/l, 24 h) was “gray”, the intensity of coloration (Serratia marcescens 038; 4 ml/l, 24 h) was 2 and the color (Serratia marcescens 038; 4 ml/l, 48 h) was “gray”. For the same compound, the intensity of coloration (Serratia marcescens 038; 4 ml/l, 48 h) was 4, the color (Serratia marcescens 038; 8 ml/l, 24 h) was “gray” and the intensity of coloration (Serratia marcescens 038; 8 ml/l, 24 h) was 2. For the same compound, the color (Serratia marcescens 038; 8 ml/l, 48 h) was “gray”, the intensity of coloration (Serratia marcescens 038; 8 ml/l, 48 h) was 4 and the color (Serratia marcescens 038; 16 ml/l, 24 h) was “gray”. The intensity of coloration (Serratia marcescens 038; 16 ml/l, 24 h) was 2, the color (Serratia marcescens 038; 16 ml/l, 48 h) was “gray” and the intensity of coloration (Serratia marcescens 038; 16 ml/l, 48 h) was 4. The color ([5]; 2 ml/l, 24 h) was “gray”, the intensity of coloration ([5]; 2 ml/l, 24 h) was 3.5 and the color ([5]; 2 ml/l, 48 h) was “gray”. The intensity of coloration ([5]; 2 ml/l, 48 h) was 3.5, the color ([5]; 4 ml/l, 24 h) was “gray” and the intensity of coloration ([5]; 4 ml/l, 24 h) was 4. For the same compound, the color ([5]; 4 ml/l, 48 h) was “gray”, the intensity of coloration ([5]; 4 ml/l, 48 h) was 4 and the color ([5]; 8 ml/l, 24 h) was “gray”. For the same compound, the intensity of coloration ([5]; 8 ml/l, 24 h) was 4, the color ([5]; 8 ml/l, 48 h) was “gray” and the intensity of coloration ([5]; 8 ml/l, 48 h) was 4. For the same compound, the color ([5]; 16 ml/l, 24 h) was “gray”, the intensity of coloration ([5]; 16 ml/l, 24 h) was 4 and the color ([5]; 16 ml/l, 48 h) was “gray”. For the same compound, the intensity of coloration ([5]; 16 ml/l, 48 h) was 4, the color ([6]; 2 ml/l, 24 h) was “gray” and the intensity of coloration ([6]; 2 ml/l, 24 h) was 2. For the same compound, the color ([6]; 2 ml/l, 48 h) was “gray”, the intensity of coloration ([6]; 2 ml/l, 48 h) was 3 and the color ([6]; 4 ml/l, 24 h) was “gray”. The intensity of coloration ([6]; 4 ml/l, 24 h) was 3, the color ([6]; 4 ml/l, 48 h) was “gray” and the intensity of coloration ([6]; 4 ml/l, 48 h) was 3. The color ([6]; 8 ml/l, 24 h) was “gray”, the intensity of coloration ([6]; 8 ml/l, 24 h) was 3 and the color ([6]; 8 ml/l, 48 h) was “gray”. For the same compound, the intensity of coloration ([6]; 8 ml/l, 48 h) was 4, the color ([6]; 16 ml/l, 24 h) was “gray” and the intensity of coloration ([6]; 16 ml/l, 24 h) was 0.5. The color ([6]; 16 ml/l, 48 h) was “gray”, the intensity of coloration ([6]; 16 ml/l, 48 h) was 0.5 and the intensity of coloration ([7]; 0.001 ml/l, 24 h) was 2. For the same compound, the intensity of coloration ([7]; 0.001 ml/l, 48 h) was 2, the intensity of coloration ([7]; 0.01 ml/l, 24 h) was 2.5 and the intensity of coloration ([7]; 0.01 ml/l, 48 h) was 3. It also gave an intensity of coloration ([7]; 0.1 ml/l, 24 h) of 2, an intensity of coloration ([7]; 0.1 ml/l, 48 h) of 3 and an intensity of coloration ([7]; 1 ml/l (1st col), 24 h) of 2. For the same compound, the intensity of coloration ([7]; 1 ml/l (1st col), 48 h) was 3, the intensity of coloration ([7]; 1 ml/l (2nd col), 24 h) was 2 and the intensity of coloration ([7]; 1 ml/l (2nd col), 48 h) was 3. The color (Salmonella typhi 118 [8]) was “gray”, the intensity of coloration (Salmonella typhi 118 [8]; sodium salt) was 3 and 3.5 and the color (Salmonella arizonae 018 [9]; 24 h) was “gray”. The intensity of coloration (Salmonella arizonae 018 [9]; 24 h) was 3.5, the color (Salmonella arizonae 018 [9]; 48 h) was “gray” and the intensity of coloration (Salmonella arizonae 018 [9]; 48 h) was 3.5. The “effect on the expression of the esterase activity” value ([10]; 0.001 to 1 ml/l tested) was “positive effect” and the “growth on culture medium” value ([10]; excessive Tergitol 4 concentrations) was “cannot develop on a culture medium”.
